Laboratory results taken from US9316913B2, “Underlayer film-forming material for lithography, underlayer film for lithography, and pattern formation method” (MITSUBISHI GAS CHEMICAL COMPANY, INC., priority 2011, dated 2016).

What was measured:
[1] = Solubility in PGME and PGMEA; format: physicochemical; conditions: 23° C.
Protocol: Herein, the solubility in PGME or PGMEA is defined as “Mass of resin/(Mass of resin+Mass of solvent)×100 (% by mass)”.
The amount of each compound dissolved in 1-methoxy-2-propanol (PGME) and propylene glycol monomethyl ether acetate (PGMEA) was measured at 23° C., and the results were evaluated according to the following criteria.
Evaluation A: 10% by weight or more
Evaluation B: 3% by weight or more and less than 10% by weight
Evaluation C: less than 3% by weight

Pyrolysis temperature = format: physicochemical; conditions: thermogravimetric measurement (TG); nitrogen stream, 10° C./min
Protocol: An EXSTAR 6000 DSC apparatus manufactured by SII NanoTechnology Inc. was used, and about 5 mg of a sample was placed in an unsealed aluminum container and heated to 500° C. at a rate of temperature rise of 10° C./min in a nitrogen gas (30 ml/min) stream. In this time, a temperature at which a reducing portion appeared on the base line was defined as a pyrolysis temperature (Tg).

Structure (SMILES) | solubility in PGME and PGMEA (Evaluation) [1] | pyrolysis temperature (Pyrolysis temperature) [°C] | solubility in PGME and PGMEA ([1]; 1-methoxy-2-propanol (PGME) and propylene glycol monomethyl ether acetate (PGMEA)) [% by weight]
Oc1ccc2c3c(ccc2c1)Oc1ccc2cc(O)ccc2c1C31c2ccccc2-c2ccccc21 [BisN-11] | B (3% by weight or more and less than 10% by weight) | 450 | –
Oc1ccc2ccc3c(c2c1)Oc1c(ccc2ccc(O)cc12)C3c1ccc(-c2ccccc2)cc1 [BisN-5] | B (3% by weight or more and less than 10% by weight) | 410 | –
Oc1ccc2ccc3c(c2c1)C(c1ccc(-c2ccccc2)cc1)c1c(ccc2ccc(O)cc12)O3 [BisN-2] | B (3% by weight or more and less than 10% by weight) | 410 | –
Oc1ccc2c3c(ccc2c1)Oc1ccc2cc(O)ccc2c1C3c1ccc(-c2ccccc2)cc1 [BisN-1] | A (10% by weight or more) | 410 | ≥ 20
Oc1ccc2c3c(ccc2c1)Oc1ccc2cc(O)ccc2c1C3c1ccc2ccc3cccc4ccc1c2c34 [BisN-9] | B (3% by weight or more and less than 10% by weight) | 420 | –
Oc1ccc2c3c(ccc2c1)Oc1ccc2cc(O)ccc2c1C3c1cc2ccccc2c2ccccc12 [BisN-8] | B (3% by weight or more and less than 10% by weight) | 415 | –
Oc1ccc2c3c(ccc2c1)Oc1ccc2cc(O)ccc2c1C31CCCCC1 [BisN-10] | B (3% by weight or more and less than 10% by weight) | 400 | –
Oc1cc2ccccc2c2c1Oc1c(O)cc3ccccc3c1C2c1ccc(-c2ccccc2)cc1 [BisN-6] | B (3% by weight or more and less than 10% by weight) | 410 | –
Oc1ccc2c3c(ccc2c1)Oc1ccc2cc(O)ccc2c1C3c1cccc2ccccc12 [BisN-7] | B (3% by weight or more and less than 10% by weight) | 415 | –
Oc1ccc2c3c(ccc2c1)Oc1ccc2cc(O)ccc2c1C3c1ccc(-c2ccc(C3c4c(ccc5cc(O)ccc45)Oc4ccc5cc(O)ccc5c43)cc2)cc1 [BisN-13] | B (3% by weight or more and less than 10% by weight) | 410 | –
Oc1ccc2c3c(ccc2c1)Oc1ccc2cc(O)ccc2c1C3c1ccc(C2c3c(ccc4cc(O)ccc34)Oc3ccc4cc(O)ccc4c32)cc1 [BisN-12] | B (3% by weight or more and less than 10% by weight) | 410 | –
Oc1cccc2c3c(ccc12)C(c1ccc(-c2ccccc2)cc1)c1ccc2c(O)cccc2c1O3 [BisN-3] | B (3% by weight or more and less than 10% by weight) | 410 | –
Oc1cccc2c3c(ccc12)Oc1ccc2c(O)cccc2c1C3c1ccc(-c2ccccc2)cc1 [BisN-4] | B (3% by weight or more and less than 10% by weight) | 410 | –
Oc1ccc2c3c(ccc2c1)Oc1ccc2cc(O)ccc2c1C3c1cc(C2c3c(ccc4cc(O)ccc34)Oc3ccc4cc(O)ccc4c32)cc(C2c3c(ccc4cc(O)ccc34)Oc3ccc4cc(O)ccc4c32)c1 [BisN-14] | B (3% by weight or more and less than 10% by weight) | 410 | –
